The source of these data is patent US11655235B2, “Pyrrolidine and piperidine compounds” (YUHAN CORPORATION, priority 2019, dated 2023).

Common to all, as to format: biochemical
One test has as its target T1, recombinant human DPP7 (Homo sapiens, UniProt Q9UHL4).
T1 construct: purchased R&D Systems
Kind of test: DPP7 inhibition, fluorogenic substrate Lys-Pro-AMC. The settings on record: recombinant human DPP7. A digest of the protocol: (§1)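 Enzyme per reaction: 50 ng DPP9, 20 ng DPP8, 10 ng each DPP7 and PREP. Compounds were serially diluted (8 points, up to 0.5% DMSO) and incubated at 25 °C.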

Another test addresses T2, recombinant human DPP8 (Homo sapiens, UniProt Q6V1X1).
T2 construct: purchased PBS Bioscience
Put plainly: DPP8 inhibition, fluorogenic substrate Z-Ala-Pro-AMC. The settings on record: recombinant human DPP8. A digest of the protocol:
as §1

For a further test, the target named is T3, recombinant human DPP9 (Homo sapiens, UniProt Q86TI2).
T3 construct: purchased R&D Systems
Put plainly: DPP9 inhibition, fluorogenic substrate H-Gly-Pro-AMC. The settings on record: recombinant human DPP9. The method, boiled down:
as §1

Another test has as its target T4, recombinant human PREP (Homo sapiens, UniProt P48147).
T4 construct: purchased R&D System
T4 sequence (P48147 1-710): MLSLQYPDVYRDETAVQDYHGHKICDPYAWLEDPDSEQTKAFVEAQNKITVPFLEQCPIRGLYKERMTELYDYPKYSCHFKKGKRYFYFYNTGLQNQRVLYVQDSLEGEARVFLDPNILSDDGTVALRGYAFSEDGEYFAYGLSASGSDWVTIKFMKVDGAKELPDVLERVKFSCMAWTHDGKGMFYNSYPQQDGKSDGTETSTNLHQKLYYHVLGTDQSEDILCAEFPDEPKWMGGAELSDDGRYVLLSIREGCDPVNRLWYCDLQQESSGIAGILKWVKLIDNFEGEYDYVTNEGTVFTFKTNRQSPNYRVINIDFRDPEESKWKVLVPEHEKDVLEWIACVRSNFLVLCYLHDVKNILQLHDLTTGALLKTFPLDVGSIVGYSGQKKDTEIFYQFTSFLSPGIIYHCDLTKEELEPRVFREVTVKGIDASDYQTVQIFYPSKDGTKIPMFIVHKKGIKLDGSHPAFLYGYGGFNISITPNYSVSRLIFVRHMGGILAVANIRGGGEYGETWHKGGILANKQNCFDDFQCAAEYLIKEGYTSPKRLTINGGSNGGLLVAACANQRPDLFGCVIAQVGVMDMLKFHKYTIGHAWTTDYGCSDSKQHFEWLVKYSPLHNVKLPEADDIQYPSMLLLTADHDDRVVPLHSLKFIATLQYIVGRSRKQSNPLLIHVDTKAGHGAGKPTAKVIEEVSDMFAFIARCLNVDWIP
Kind of test: PREP inhibition, fluorogenic substrate Z-Gly-Pro-AMC. The settings on record: Inhibitory Activity (IC50, nM) PREP, recombinant human PREP. A digest of the protocol:
as §1

Another test has as its target T5, Recombinant human FAP (Homo sapiens, UniProt Q12884).
T5 construct: purchased R&D systems
T5 sequence (Q12884 1-760): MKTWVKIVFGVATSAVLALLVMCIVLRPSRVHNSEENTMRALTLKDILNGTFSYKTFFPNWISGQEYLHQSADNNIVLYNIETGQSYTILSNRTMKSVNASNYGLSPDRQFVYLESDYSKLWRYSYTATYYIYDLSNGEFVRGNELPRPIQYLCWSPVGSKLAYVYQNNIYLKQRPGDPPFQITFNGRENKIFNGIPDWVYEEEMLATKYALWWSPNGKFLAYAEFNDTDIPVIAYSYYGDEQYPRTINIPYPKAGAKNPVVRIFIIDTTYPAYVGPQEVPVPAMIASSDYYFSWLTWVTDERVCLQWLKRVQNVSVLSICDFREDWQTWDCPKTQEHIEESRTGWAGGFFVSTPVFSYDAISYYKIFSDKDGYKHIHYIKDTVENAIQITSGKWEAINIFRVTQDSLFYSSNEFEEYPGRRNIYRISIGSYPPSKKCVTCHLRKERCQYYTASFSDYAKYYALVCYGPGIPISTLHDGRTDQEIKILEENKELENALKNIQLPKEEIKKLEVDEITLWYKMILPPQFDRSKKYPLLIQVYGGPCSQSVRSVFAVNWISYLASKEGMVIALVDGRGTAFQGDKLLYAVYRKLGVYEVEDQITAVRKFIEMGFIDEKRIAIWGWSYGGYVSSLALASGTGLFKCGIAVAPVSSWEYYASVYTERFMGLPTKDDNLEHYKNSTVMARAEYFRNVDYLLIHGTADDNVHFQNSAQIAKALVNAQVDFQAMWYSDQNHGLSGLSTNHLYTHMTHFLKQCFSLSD
Put plainly: FAP FRET assay, FGF21-sequence FRET peptide substrate. The settings on record: FRET peptide with human FGF21 sequence, 6 μM, 37° C. A digest of the protocol: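 Recombinant human FAP, 10 ng per reaction, in 50 mM HEPES pH 7.2 with 150 mM NaCl, 0.1 mg/ml BSA, 1 mM EDTA; HyLite Fluor 488/QXL 520 FRET peptide of human FGF21 sequence at 6 μM final, ≤0.1% DMSO, 37° C. IC50 from 8-point curves by four-parameter logistic fit.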

For another test, the target named is DPP4 (Homo sapiens, UniProt P27487). Kind of test: DPP4 inhibition, fluorogenic substrate H-Gly-Pro-AMC. Details: purchased R&D Systems. The settings on record: recombinant human DPP4.
DPP4, sequence (P27487 whole entry): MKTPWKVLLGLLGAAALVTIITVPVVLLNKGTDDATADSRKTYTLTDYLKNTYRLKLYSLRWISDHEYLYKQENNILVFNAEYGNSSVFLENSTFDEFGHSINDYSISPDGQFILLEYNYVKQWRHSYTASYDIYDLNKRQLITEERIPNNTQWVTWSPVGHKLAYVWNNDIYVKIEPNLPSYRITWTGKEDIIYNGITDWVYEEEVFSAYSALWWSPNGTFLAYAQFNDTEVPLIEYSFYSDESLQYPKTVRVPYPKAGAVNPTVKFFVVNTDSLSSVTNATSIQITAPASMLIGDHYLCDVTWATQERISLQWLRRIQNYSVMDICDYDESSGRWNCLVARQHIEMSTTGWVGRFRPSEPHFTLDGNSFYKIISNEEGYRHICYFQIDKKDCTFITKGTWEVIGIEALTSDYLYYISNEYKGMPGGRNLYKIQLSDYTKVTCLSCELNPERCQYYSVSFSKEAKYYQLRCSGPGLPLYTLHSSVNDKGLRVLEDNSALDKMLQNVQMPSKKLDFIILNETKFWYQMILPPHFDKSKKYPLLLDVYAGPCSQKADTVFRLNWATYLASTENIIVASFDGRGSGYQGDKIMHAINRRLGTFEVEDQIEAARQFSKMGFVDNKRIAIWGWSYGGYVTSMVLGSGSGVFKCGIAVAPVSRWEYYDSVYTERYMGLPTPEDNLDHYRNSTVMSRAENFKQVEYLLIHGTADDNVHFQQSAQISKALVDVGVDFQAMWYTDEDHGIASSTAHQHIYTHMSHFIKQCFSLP

T3 sequence (Q86TI2 whole entry): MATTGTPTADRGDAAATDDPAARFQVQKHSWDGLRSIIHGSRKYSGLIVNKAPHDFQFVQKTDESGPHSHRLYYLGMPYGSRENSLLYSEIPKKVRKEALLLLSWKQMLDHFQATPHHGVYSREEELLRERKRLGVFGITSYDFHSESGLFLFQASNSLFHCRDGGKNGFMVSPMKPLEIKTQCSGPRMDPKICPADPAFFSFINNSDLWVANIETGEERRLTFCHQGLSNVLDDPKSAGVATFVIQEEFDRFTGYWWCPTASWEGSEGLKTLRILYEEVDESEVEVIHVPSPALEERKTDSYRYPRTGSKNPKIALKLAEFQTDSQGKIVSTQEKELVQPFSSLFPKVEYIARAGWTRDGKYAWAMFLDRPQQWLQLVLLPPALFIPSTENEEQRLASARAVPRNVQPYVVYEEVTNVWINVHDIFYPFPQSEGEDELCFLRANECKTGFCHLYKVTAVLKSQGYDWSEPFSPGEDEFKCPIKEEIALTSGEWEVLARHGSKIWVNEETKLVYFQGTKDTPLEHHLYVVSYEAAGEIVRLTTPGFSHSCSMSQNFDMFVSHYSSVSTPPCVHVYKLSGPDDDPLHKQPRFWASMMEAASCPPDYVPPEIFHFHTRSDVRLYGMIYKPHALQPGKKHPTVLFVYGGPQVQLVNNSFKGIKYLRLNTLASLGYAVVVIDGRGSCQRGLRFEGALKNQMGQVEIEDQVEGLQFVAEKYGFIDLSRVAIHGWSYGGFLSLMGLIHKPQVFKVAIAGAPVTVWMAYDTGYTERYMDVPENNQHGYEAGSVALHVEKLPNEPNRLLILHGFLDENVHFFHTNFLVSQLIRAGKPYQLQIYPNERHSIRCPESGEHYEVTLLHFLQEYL
T2 sequence (Q6V1X1 whole entry): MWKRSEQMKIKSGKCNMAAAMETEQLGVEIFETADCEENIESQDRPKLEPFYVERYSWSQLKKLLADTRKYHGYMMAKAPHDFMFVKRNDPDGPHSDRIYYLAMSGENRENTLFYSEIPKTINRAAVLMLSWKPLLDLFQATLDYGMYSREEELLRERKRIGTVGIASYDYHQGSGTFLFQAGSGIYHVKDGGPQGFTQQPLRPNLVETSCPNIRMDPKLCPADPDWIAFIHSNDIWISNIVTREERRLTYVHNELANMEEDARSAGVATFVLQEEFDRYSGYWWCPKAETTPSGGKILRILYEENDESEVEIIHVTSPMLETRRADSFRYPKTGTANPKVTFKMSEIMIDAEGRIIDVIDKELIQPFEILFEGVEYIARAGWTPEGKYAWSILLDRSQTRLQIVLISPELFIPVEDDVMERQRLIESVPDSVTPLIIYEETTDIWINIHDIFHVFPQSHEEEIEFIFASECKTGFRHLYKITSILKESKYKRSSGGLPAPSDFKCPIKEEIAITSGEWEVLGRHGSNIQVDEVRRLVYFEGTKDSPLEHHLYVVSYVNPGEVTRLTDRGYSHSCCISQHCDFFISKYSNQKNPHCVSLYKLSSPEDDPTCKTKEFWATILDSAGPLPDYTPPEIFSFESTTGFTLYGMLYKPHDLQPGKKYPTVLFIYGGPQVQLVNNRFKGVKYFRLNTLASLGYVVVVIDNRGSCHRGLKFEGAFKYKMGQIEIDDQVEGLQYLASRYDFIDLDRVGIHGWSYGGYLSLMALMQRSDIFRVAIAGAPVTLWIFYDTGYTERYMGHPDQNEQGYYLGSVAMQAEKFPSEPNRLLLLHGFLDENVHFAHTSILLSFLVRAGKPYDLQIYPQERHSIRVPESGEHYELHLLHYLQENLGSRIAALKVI

For `N#C[C@@H]1C[C@H](F)CN1C(=O)CN1CC[C@@H](Nc2cccc3ncc(F)cc23)C1` [Example 184, (2S,4S)-4-fluoro-1-[2-[(3R)-3-[(3-fluoro-5-quinolyl)amino]pyrrolidin-1-yl]acetyl]pyrrolidine-2-carbonitrile], the IC50 (in general, the concentration that inhibits the measured activity by half) at recombinant human DPP7 was determined as 2760 nM; on recombinant human DPP8, 2430 nM; on recombinant human DPP9, 5150 nM; at recombinant human PREP it was 3150 nM; at Recombinant human FAP, 3.2 nM; on DPP4, 1290 nM.

Consider `N#C[C@@H]1CCCN1C(=O)CN1CC[C@@H](Nc2ccc(F)c3ncccc23)C1` [Example 199, (2S)-1-[2-[(3R)-3-[(8-fluoro-5-quinolyl)amino]pyrrolidin-1-yl]acetyl]pyrrolidine-2-carbonitrile], for which the IC50 on recombinant human DPP7 is 8010 nM; on recombinant human DPP8, 8230 nM; on recombinant human DPP9, 10900 nM; on recombinant human PREP, 7250 nM; at Recombinant human FAP, 2.3 nM; at DPP4, 2620 nM.

For the compound `N#C[C@@H]1CCCN1C(=O)CN1CC[C@@H](Nc2ccc(OC(F)(F)F)c3ncccc23)C1` [Example 202, (2S)-1-[2-[(3R)-3-[[8-(trifluoromethoxy)-5-quinolyl]amino]pyrrolidin-1-yl]acetyl]pyrrolidine-2-carbonitrile], the IC50 at recombinant human DPP7 came out at 6810 nM; at recombinant human DPP8, 14200 nM; on recombinant human DPP9, 13100 nM; on recombinant human PREP, 8080 nM; at Recombinant human FAP, 2.3 nM; at DPP4, 12100 nM.

Take `CNC(=O)c1ccc(N[C@H]2CCN(CC(=O)N3C[C@@H](F)C[C@H]3C#N)C2)c2cccnc12` [Example 281, N-methyl-5-[[(3S)-1-[2-oxo-2-[(2S,4S)-2-cyano-4-fluoro-pyrrolidin-1-yl]ethyl]pyrrolidin-3-yl]amino]quinoline-8-carboxamide]: the IC50 at recombinant human DPP7 amounted to 1130 nM; at recombinant human DPP8, 4450 nM; on recombinant human DPP9, 2600 nM; on recombinant human PREP, 2450 nM; on Recombinant human FAP, 3.4 nM; at DPP4, 2750 nM.

Consider `CNC(=O)c1ccc(N[C@H]2CCN(CC(=O)N3CCC[C@H]3C#N)C2)c2cccnc12` [Example 286, N-methyl-5-[[(3S)-1-[2-oxo-2-[(2S)-2-cyanopyrrolidin-1-yl]ethyl]pyrrolidin-3-yl]amino]quinoline-8-carboxamide], for which the IC50 on recombinant human DPP7 was found to be 3100 nM; on recombinant human DPP8, 19800 nM; at recombinant human DPP9, 32200 nM; at recombinant human PREP it was 6300 nM; on Recombinant human FAP, 9.3 nM; at DPP4, 10900 nM.

Take `N#C[C@@H]1CCCN1C(=O)CN1CCC(Nc2ccc(C(=O)Nc3ccccn3)c3ncccc23)CC1` [Example 399, 5-[[1-[2-oxo-2-[(2S)-2-cyanopyrrolidin-1-yl]ethyl]-4-piperidyl]amino]-N-(2-pyridyl)quinoline-8-carboxamide]: the IC50 at recombinant human DPP7 was found to be 1010 nM; on recombinant human DPP8, 1200 nM; on recombinant human DPP9 it was 3330 nM; at recombinant human PREP, 627 nM; at Recombinant human FAP it was 1.5 nM; at DPP4 it was 17400 nM.

Take `N#C[C@@H]1CCCN1C(=O)CN1CCC(Nc2ccc(C(=O)Nc3cccnc3)c3ncccc23)CC1` [Example 400, 5-[[1-[2-oxo-2-[(2S)-2-cyanopyrrolidin-1-yl]ethyl]-4-piperidyl]amino]-N-(3-pyridyl)quinoline-8-carboxamide]: the concentration for half-maximal inhibition (IC50) on recombinant human DPP7 was determined as 961 nM; at recombinant human DPP8, 971 nM; at recombinant human DPP9 it was 2010 nM; on recombinant human PREP, 1960 nM; at Recombinant human FAP it was 2.3 nM; on DPP4 it was 17400 nM.

As for `N#C[C@@H]1CCCN1C(=O)CN1CCC(Nc2ccc(C(=O)Nc3ccncc3)c3ncccc23)CC1` [Example 401, 5-[[1-[2-oxo-2-[(2S)-2-cyanopyrrolidin-1-yl]ethyl]-4-piperidyl]amino]-N-(4-pyridyl)quinoline-8-carboxamide], the IC50 on recombinant human DPP7 amounted to 775 nM; at recombinant human DPP8 it was 266 nM; on recombinant human DPP9, 1610 nM; at recombinant human PREP it was 1200 nM; on Recombinant human FAP, 5.9 nM; at DPP4, 15200 nM.

With `N#C[C@@H]1CCCN1C(=O)CN1CCC(Nc2ccc(C(=O)Nc3ncccn3)c3ncccc23)CC1` [Example 402, 5-[[1-[2-oxo-2-[(2S)-2-cyanopyrrolidin-1-yl]ethyl]-4-piperidyl]amino]-N-pyrimidin-2-yl-quinoline-8-carboxamide], the IC50 on recombinant human DPP7 came out at 1160 nM; on recombinant human DPP8, 1520 nM; at recombinant human DPP9 it was 7830 nM; at recombinant human PREP, 359 nM; on Recombinant human FAP it was 3.7 nM; at DPP4 it was 12400 nM.

As to `N#C[C@@H]1C[C@H](F)CN1C(=O)CN1CCC(Nc2ccc(C(=O)Nc3ncccn3)c3ncccc23)CC1` [Example 403, 5-[[1-[2-oxo-2-[(2S,4S)-2-cyano-4-fluoro-pyrrolidin-1-yl]ethyl]-4-piperidyl]amino]-N-pyrimidin-2-yl-quinoline-8-carboxamide], the IC50 was determined as 405 nM on recombinant human DPP7; 251 nM at recombinant human DPP8; 558 nM at recombinant human DPP9; 60.2 nM at recombinant human PREP; 1.8 nM at Recombinant human FAP; 2080 nM on DPP4.

As to `N#C[C@@H]1C[C@H](F)CN1C(=O)CN1CCC(Nc2ccc(C(=O)Nc3ccccn3)c3ncccc23)CC1` [Example 404, 5-[[1-[2-oxo-2-[(2S,4S)-2-cyano-4-fluoro-pyrrolidin-1-yl]ethyl]-4-piperidyl]amino]-N-(2-pyridyl)quinoline-8-carboxamide], the IC50 is 634 nM at recombinant human DPP7; 596 nM at recombinant human DPP8; 682 nM at recombinant human DPP9; 78.3 nM on recombinant human PREP; 1.8 nM at Recombinant human FAP; 4730 nM on DPP4.

As for `N#C[C@@H]1C[C@H](F)CN1C(=O)CN1CCC(Nc2ccc(C(=O)Nc3cccnc3)c3ncccc23)CC1` [Example 405, 5-[[1-[2-oxo-2-[(2S,4S)-2-cyano-4-fluoro-pyrrolidin-1-yl]ethyl]-4-piperidyl]amino]-N-(3-pyridyl)quinoline-8-carboxamide], the IC50 on recombinant human DPP7 was found to be 392 nM; on recombinant human DPP8, 66.7 nM; at recombinant human DPP9, 398 nM; at recombinant human PREP it was 597 nM; on Recombinant human FAP, 1.9 nM; on DPP4, 2160 nM.

Take `N#C[C@@H]1C[C@H](F)CN1C(=O)CN1CCC(Nc2ccc(C(=O)Nc3ccncc3)c3ncccc23)CC1` [Example 406, 5-[[1-[2-oxo-2-[(2S,4S)-2-cyano-4-fluoro-pyrrolidin-1-yl]ethyl]-4-piperidyl]amino]-N-(4-pyridyl)quinoline-8-carboxamide]: the IC50 at recombinant human DPP7 worked out at 402 nM; at recombinant human DPP8, 23.3 nM; at recombinant human DPP9 it was 218 nM; at recombinant human PREP, 535 nM; at Recombinant human FAP, 4.2 nM; on DPP4, 2700 nM.
